# Data taken from patent publication US20090203632A1, “COMPOSITIONS AND METHODS FOR TREATING CONTRACTURE” (Angiotech International AG, priority 2004, published 2009).
# Experiment: Water solubility of 5-FU
# Assay type: physicochemical
# Conditions: read-out: measured water solubility
# Procedure: A hyaluronic acid formulation that includes 5-FU can be prepared as described. 5-FU is combined with 10 mg hyaluronic acid (1 MDa), 1 ml sterile water. The product is stirred until a uniform gel solution, free of particular polymer or drug is achieved. Alternatively, the HA and water may be combined, stirred and autoclaved to homogenize the solution. After dissolving the polymer, the 5-FU may be added with stirring. NaCl is added (as required for isotonicity), and the pH is adjusted to between 6-8 with NaOH and HCl as required. […] The formulation may be injected to the site of treatment (e.g., into a joint) in a volume appropriate to that site. For example, a knee joint might receive a 2 ml injection, whereas a finger joint or tendon sheath may receive substantially less.
structure (smiles),measurement,value
"O=c1[nH]cc(F)c(=O)[nH]1 [Formula 5-FU, 5-Fluorouracil]",solubility,12.9 mg/mL
